Measurements reported in BindingDB's records for doi:10.1016/j.ejmech.2018.01.053 (University of Southern California, 2018).

Key:
[1] = Inhibition of BRAF V600E mutant in human A375 cells assessed as reduction in cell proliferation incubated for 96 hrs by MTT assay
[2] = Inhibition of BCR-ABL (unknown origin) expressed in mouse BA/F3 cells assessed as reduction in cell proliferation incubated for 48 hrs by MTT assay

Row | IC50 [1] [nM] | IC50 [2] [nM] | Structure (SMILES)
1 | > 10000 | 942 | CC(C)n1nc(C#Cc2cccc3cc(-c4cccc(C(F)(F)F)c4)ncc23)c2c(N)ncnc21
2 | 97 |  | CC(C)n1nc(C#Cc2cccc(NC(=O)c3cccc(C(F)(F)F)c3)c2)c2c(N)ncnc21
3 | > 10000 | 354 | CC(C)n1nc(C#Cc2cccc3cc(-c4ccc(CN5CCN(C)CC5)cc4)ncc23)c2c(N)ncnc21
4 | 2300 | 435 | Cc1ccc2cc(-c3cccc(C(F)(F)F)c3)ncc2c1C#Cc1nn(C(C)C)c2ncnc(N)c12
5 | > 10000 | 1110 | CCn1nc(C#Cc2cccc3cc(-c4cccc(C(F)(F)F)c4)ncc23)c2c(N)ncnc21
